Counter-ions that a name gives are not always drawn.
Target: T1, recombinant guanylate cyclase reporter cell line (Rattus norvegicus, UniProt P19686+P20595)
T1 construct: expressed in transfected cells; host or cells: recombinant reporter cell line
T1 sequence (P19686 1-690): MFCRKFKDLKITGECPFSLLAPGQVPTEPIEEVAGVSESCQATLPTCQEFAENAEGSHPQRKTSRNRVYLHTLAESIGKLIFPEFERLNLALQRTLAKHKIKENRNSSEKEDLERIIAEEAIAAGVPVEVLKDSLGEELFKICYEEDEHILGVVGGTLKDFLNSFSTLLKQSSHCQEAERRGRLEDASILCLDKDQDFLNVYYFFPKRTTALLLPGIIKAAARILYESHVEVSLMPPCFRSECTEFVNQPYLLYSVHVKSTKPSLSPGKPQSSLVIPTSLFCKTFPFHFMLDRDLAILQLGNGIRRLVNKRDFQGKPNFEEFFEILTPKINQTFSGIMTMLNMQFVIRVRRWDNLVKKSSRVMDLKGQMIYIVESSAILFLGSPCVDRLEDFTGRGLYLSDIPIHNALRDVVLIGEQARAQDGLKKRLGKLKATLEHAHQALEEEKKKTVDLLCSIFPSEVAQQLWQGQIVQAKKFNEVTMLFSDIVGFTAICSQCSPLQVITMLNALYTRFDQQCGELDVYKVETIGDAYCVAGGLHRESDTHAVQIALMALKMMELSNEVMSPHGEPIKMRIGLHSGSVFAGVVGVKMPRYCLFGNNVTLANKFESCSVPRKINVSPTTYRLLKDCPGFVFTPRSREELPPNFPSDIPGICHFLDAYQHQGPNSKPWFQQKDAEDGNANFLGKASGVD
T1 sequence (P20595 1-619): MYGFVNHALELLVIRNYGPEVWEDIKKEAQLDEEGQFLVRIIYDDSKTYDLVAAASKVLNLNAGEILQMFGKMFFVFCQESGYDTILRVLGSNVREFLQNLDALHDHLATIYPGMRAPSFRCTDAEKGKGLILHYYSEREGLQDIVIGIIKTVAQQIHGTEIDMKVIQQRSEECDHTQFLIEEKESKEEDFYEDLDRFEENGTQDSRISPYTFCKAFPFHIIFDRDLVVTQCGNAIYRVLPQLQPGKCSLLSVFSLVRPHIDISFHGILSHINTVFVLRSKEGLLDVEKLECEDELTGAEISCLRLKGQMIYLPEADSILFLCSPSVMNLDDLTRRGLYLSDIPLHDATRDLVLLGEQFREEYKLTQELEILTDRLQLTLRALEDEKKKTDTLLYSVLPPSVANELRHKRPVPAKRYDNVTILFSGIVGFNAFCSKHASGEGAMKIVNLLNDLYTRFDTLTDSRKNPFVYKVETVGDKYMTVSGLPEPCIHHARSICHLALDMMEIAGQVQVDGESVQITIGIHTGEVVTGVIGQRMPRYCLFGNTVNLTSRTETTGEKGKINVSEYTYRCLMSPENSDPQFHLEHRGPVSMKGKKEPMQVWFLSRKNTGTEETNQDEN
Experiment: Effect on a recombinant guanylate cyclase reporter cell line
Format: cell-based
Settings: MEC = minimum effective concentration; in some cases mean values for individual determinations
Method: B-2. Effect on a Recombinant Guanylate Cyclase Reporter Cell Line
The cellular effect of the inventive compounds is determined using a recombinant guanylate cyclase reporter cell line, as described in F. Wunder et al., Anal. Biochem. 339, 104-112 (2005).
Representative MEC values (MEC=minimum effective concentration) for the inventive compounds are shown in the table below (in some cases as mean values for individual determinations): […]

Compound	MEC [µM]
CCN(C)Cc1ccc(OC)c(-c2c(C)nc3c(OCc4c(F)cccc4F)cccn23)c1 [Example 28, N-(3-{8-[(2,6-difluorobenzyl)oxy]-2-methylimidazo[1,2-a]pyridin-3-yl}-4-methoxybenzyl)-N-methylethanamine]	1.0
Cc1nc2c(OCc3c(F)cccc3F)cccn2c1-c1ccncc1 [Example 29, 8-[(2,6-difluorobenzyl)oxy]-2-methyl-3-(pyridin-4-yl)imidazo[1,2-a]pyridine]	1.0
Cc1ccc(-c2c(C)nc3c(OCc4c(F)cccc4F)cccn23)cc1 [Example 30, 8-[(2,6-difluorobenzyl)oxy]-2-methyl-3-(4-methylphenyl)imidazo[1,2-a]pyridine]	3.0
Cc1nc2c(OCc3c(F)cccc3F)cccn2c1-c1ccc(Oc2ccccc2)cc1 [Example 31, 8-[(2,6-difluorobenzyl)oxy]-2-methyl-3-(4-phenoxyphenyl)imidazo[1,2-a]pyridine]	3.0
C=Cc1ccc(-c2c(C)nc3c(OCc4c(F)cccc4F)cccn23)cc1 [Example 32, 8-[(2,6-difluorobenzyl)oxy]-2-methyl-3-(4-vinylphenyl)imidazo[1,2-a]pyridine]	3.0
CSc1cccc(-c2c(C)nc3c(OCc4c(F)cccc4F)cccn23)c1 [Example 33, 8-[(2,6-difluorobenzyl)oxy]-2-methyl-3-[3-(methylsulphanyl)phenyl]imidazo[1,2-a]pyridine]	3.0
Cc1nc2c(OCc3c(F)cccc3F)cccn2c1-c1cccc(Cl)c1 [Example 34, 3-(3-chlorophenyl)-8-[(2,6-difluorobenzyl)oxy]-2-methylimidazo[1,2-a]pyridine]	3.0
Cc1nc2c(OCc3c(F)cccc3F)cccn2c1-c1csc2ccccc12 [Example 35, 3-(1-benzothiophen-3-yl)-8-[(2,6-difluorobenzyl)oxy]-2-methylimidazo[1,2-a]pyridine]	3.0
Cc1nc2c(OCc3c(F)cccc3F)cccn2c1-c1ccc2c(ccn2C)c1 [Example 36, 8-[(2,6-difluorobenzyl)oxy]-2-methyl-3-(1-methyl-1H-indol-5-yl)imidazo[1,2-a]pyridine]	3.0
Cc1nc2c(OCc3c(F)cccc3F)cccn2c1-c1ccc2c(c1)OCCO2 [Example 37, 8-[(2,6-difluorobenzyl)oxy]-3-(2,3-dihydro-1,4-benzodioxin-6-yl)-2-methylimidazo[1,2-a]pyridine]	3.0
Cc1nc2c(OCc3c(F)cccc3F)cccn2c1-c1cccc(N2CCCCC2)c1 [Example 38, 8-[(2,6-difluorobenzyl)oxy]-2-methyl-3-[3-(piperidin-1-yl)phenyl]imidazo[1,2-a]pyridine]	3.0
Cc1nc2c(OCc3c(F)cccc3F)cccn2c1-c1ccc(CN2CCOCC2)c(F)c1 [Example 39, 8-[(2,6-difluorobenzyl)oxy]-3-[3-fluoro-4-(morpholin-4-ylmethyl)phenyl]-2-methylimidazo[1,2-a]pyridine]	3.0
Cc1nc2c(OCc3c(F)cccc3F)cccn2c1-c1ccc(C(N)=O)cc1 [Example 40, 4-{8-[(2,6-difluorobenzyl)oxy]-2-methylimidazo[1,2-a]pyridin-3-yl}benzamide]	3.0
COc1ccc(-c2c(C)nc3c(OCc4c(F)cccc4F)cccn23)cc1CN1CCOCC1 [Example 41, 8-[(2,6-difluorobenzyl)oxy]-3-[4-methoxy-3-(morpholin-4-ylmethyl)phenyl]-2-methylimidazo[1,2-a]pyridine]	3.0
Cc1nc2c(OCc3c(F)cccc3F)cccn2c1-c1cccc(CN2CCCCC2)c1 [Example 42, 8-[(2,6-difluorobenzyl)oxy]-2-methyl-3-[3-(piperidin-1-ylmethyl)phenyl]imidazo[1,2-a]pyridine]	3.0
CCN(CC)Cc1ccc(-c2c(C)nc3c(OCc4c(F)cccc4F)cccn23)cc1F [Example 43, N-(4-{8-[(2,6-difluorobenzyl)oxy]-2-methylimidazo[1,2-a]pyridin-3-yl}-2-fluorobenzyl)-N-ethylethanamine]	3.0
Cc1nc2c(OCc3c(F)cccc3F)cccn2c1-c1ccc(F)c(CN2CCOCC2)c1 [Example 44, 8-[(2,6-difluorobenzyl)oxy]-3-[4-fluoro-3-(morpholin-4-ylmethyl)phenyl]-2-methylimidazo[1,2-a]pyridine]	3.0
Cc1nc2c(OCc3c(F)cccc3F)cccn2c1-c1cn[nH]c1 [Example 45, 8-[(2,6-difluorobenzyl)oxy]-2-methyl-3-(1H-pyrazol-4-yl)imidazo[1,2-a]pyridine]	0.1
Cc1nc2c(OCc3c(F)cccc3F)cccn2c1-c1cccc(S(C)(=O)=O)c1 [Example 46]	0.2
Cc1nc2c(OCc3c(F)cccc3F)cccn2c1-c1ccn[nH]1 [Example 47]	0.3

Compound	MEC [µM]
Cc1nc2c(OCc3c(F)cccc3F)cccn2c1-c1cccc(NS(C)(=O)=O)c1 [Example 48]	0.2
CCn1cc(-c2c(C)nc3c(OCc4c(F)cccc4F)cccn23)cn1 [Example 49]	0.3
Cc1nc2c(OCc3c(F)cccc3F)cccn2c1-c1cnn(C)c1 [Example 50]	0.3
Cc1nc2c(OCc3c(F)cccc3F)cccn2c1-c1ccc2cn[nH]c2c1 [Example 51]	0.3
Cc1nc2c(OCc3c(F)cccc3F)cccn2c1-c1cnn(C(C)C)c1 [Example 52]	0.3
Cc1nc2c(OCc3c(F)cccc3F)cccn2c1-c1cccc2[nH]ncc12 [Example 53]	1.0
Cc1nc2c(OCc3c(F)cccc3F)cccn2c1-c1ccc2[nH]ncc2c1 [Example 54]	1.0
Cc1nn(C)cc1-c1c(C)nc2c(OCc3c(F)cccc3F)cccn12 [Example 55]	1.0
Cc1nc2c(OCc3c(F)cccc3F)cccn2c1-c1cnn(C)c1C [Example 56]	3.0
CCNc1nnc(-c2c(C)nc3c(OCc4c(F)cccc4F)cccn23)o1 [Example 57, 5-{8-[(2,6-Difluorobenzyl)oxy]-2-methylimidazo[1,2-a]pyridin-3-yl}-N-ethyl-1,3,4-oxadiazole-2-amine]	1.0
Cc1nc2c(OCc3c(F)cccc3F)cccn2c1-c1nnc(N)o1 [Example 58, 5-{8-[(2,6-Difluorobenzyl)oxy]-2-methylimidazo[1,2-a]pyridin-3-yl}-1,3,4-oxadiazole-2-amine]	3.0
Cc1nc2c(OCc3c(F)cccc3F)cccn2c1-c1ccnc(-c2ccc(F)cc2)c1 [Example 59, 8-[(2,6-Difluorobenzyl)oxy]-3-[2-(4-fluorophenyl)pyridin-4-yl]-2-methylimidazo[1,2-a]pyridine]	1.0
Cc1nc2c(OCc3c(F)cccc3F)cccn2c1-c1cnccn1 [Example 60, 8-[(2,6-Difluorobenzyl)oxy]-2-methyl-3-(pyrazin-2-yl)imidazo[1,2-a]pyridine]	3.0
CCCCc1coc(-c2c(C)nc3c(OCc4c(F)cccc4F)cc(Cl)cn23)n1 [Example 61, 3-(4-Butyl-1,3-oxazol-2-yl)-6-chloro-8-[(2,6-difluorobenzyl)oxy]-2-methylimidazo[1,2-a]pyridine trifluoroacetate]	3.0
Cc1nc2c(OCC3CCCCC3)cccn2c1-c1nnc(-c2ncccn2)o1 [Example 62, 8-(Cyclohexylmethoxy)-2-methyl-3-[5-(pyrimidin-2-yl)-1,3,4-oxadiazol-2-yl]imidazo[1,2-a]pyridine]	3.0
Cc1nc2c(OCC3CCCCC3)cccn2c1-c1nnc(-c2cccnc2)o1 [Example 64]	3.0
Cc1nc2c(OCC3CCCCC3)cccn2c1-c1nnc(C(C)O)o1 (stereo not drawn) [Example 65]	3.0
CCOCc1nnc(-c2c(C)nc3c(OCC4CCCCC4)cccn23)o1 [Example 66]	3.0
COCc1nnc(-c2c(C)nc3c(OCC4CCCCC4)cccn23)o1 [Example 67]	3.0

Source: patent publication US9776997B2, “3-aryl-substituted imidazo[1,2-A]pyridines and their use” (Bayer Pharma Aktiengesellschaft, priority 2013, dated 2017)
